The values that follow come from patent publication US20110021786A1, “Pharmaceutical Solutions, Process of Preparation and Therapeutic Uses” (UCB PHARMA, S.A., priority 2008, published 2011).

A short description of data set [1]: stability test of brivaracetam solutions at different pH. The class given is physicochemical. The method, then: Solutions at different pH are prepared (natural pH (not buffered) and pH 4.5, 5.0, 5.5, 6.0. The pH is controlled by means of an adequate buffer in order to obtain the wished pH (in the example by 50 mM citrate).
(§1) The solution is dispensed in 1.5 ml sealed glass vials.
(§2) A stability test is performed at 25° C., 40° C., 60° C. and 80° C.
The pH of the various solutions is measured at the beginning of the test and after 2 weeks, 4 weeks, and 10 weeks. The amounts of degradation products in the brivaracetam solutions are dosed in the various solutions.

In data set [2] the target is T1, Levetiracetam Binding Site (LBS) (Rattus norvegicus, UniProt Q02563).
T1 construct: from tissue; host or cells: rat cerebral cortex crude membranes (male Sprague-Dawley)
T1 sequence (Q02563 whole entry): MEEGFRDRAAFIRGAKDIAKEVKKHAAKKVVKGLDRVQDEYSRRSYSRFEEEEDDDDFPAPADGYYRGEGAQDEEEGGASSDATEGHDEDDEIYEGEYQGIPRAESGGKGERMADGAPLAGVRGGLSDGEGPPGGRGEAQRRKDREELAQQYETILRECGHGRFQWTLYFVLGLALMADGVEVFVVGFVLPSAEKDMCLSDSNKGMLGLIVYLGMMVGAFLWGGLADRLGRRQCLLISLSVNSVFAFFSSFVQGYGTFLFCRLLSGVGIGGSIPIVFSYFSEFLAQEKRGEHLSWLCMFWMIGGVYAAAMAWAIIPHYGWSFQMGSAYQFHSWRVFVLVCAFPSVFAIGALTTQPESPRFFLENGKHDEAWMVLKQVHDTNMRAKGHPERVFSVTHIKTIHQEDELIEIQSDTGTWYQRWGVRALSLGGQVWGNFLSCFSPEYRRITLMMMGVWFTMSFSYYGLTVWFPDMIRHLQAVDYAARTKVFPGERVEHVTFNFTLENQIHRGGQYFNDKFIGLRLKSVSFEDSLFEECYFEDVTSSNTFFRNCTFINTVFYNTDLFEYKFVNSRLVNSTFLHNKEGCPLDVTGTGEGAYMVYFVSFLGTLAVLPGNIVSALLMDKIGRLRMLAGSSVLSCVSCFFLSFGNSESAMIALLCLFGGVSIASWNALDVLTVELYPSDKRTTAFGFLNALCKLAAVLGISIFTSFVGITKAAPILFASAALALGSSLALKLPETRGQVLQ
Nature of the data set: LBS binding assay. The arrangement: species or system Sprague-Dawley rats. Here is the method: [LBS stands for Levetiracetam Binding Site cf. M. Noyer et al., Eur. J. Pharmacol., 286 (1995) 137-146.]
The inhibition constant (Ki) of a compound is determined in competitive binding experiments by measuring the binding of a single concentration of a radioactive ligand at equilibrium with various concentrations of the unlabeled test substance. The concentration of the test substance inhibiting 50% of the specific binding of the radioligand is called the IC50. The equilibrium dissociation constant Ki is proportional to the IC50 and is calculated using the equation of Cheng and Prusoff (Cheng Y. et al., Biochem. Pharmacol. […], 22, 3099-3108).
The concentration range usually encompasses 6 log units with variable steps (0.3 to 0.5 log). Assays are performed in mono- or duplicate, each Ki determination is performed on two different samples of test substance. […]
Membranes (150-200 μg of protein/assay) are incubated at 4° C. for 120 min in 0.5 ml of a 50 mmol/l Tris-HCl buffer (pH 7.4) containing 2 mmol/l MgCl2, 1 to 2 10^−9 mol/l of [^3H]-2-[4-(3-azidophenyl)-2-oxo-1-pyrrolidinyl]butanamide and increasing concentrations of the test substance. […] The radioactivity trapped onto the filters is counted by liquid scintillation in a β-counter (Tri-Carb 1900 or TopCount 9206, Camberra Packard, Belgium, or any other equivalent counter). […]

Data set [3] is described as follows: bioavailability and safety of an intravenous formulation of brivaracetam. The class given is in vivo, healthy subjects. Here is the method: A first step of the study done in a 3-way crossover in 24 healthy subjects (12 females, 12 males) compares the single-dose bioavailability of brivaracetam 10 mg oral tablets versus brivaracetam 10 mg administered as a 15 minute intravenous infusion, and as an IV bolus. In a second step, a single-dose escalation study (25 mg, 50 mg, 100 mg and 150 mg) is performed in 4 consecutive groups of 6 subjects (3 females, 3 males) to gain information and as a fast IV bolus, to assess the pharmacokinetics of brivaracetam at these dosing regimens and to explore dose proportionality.

Data set [4] concerns audiogenic seizures in sound-susceptible mice. Description: animal model of sound-susceptible mice. The conditions noted are these: Mus musculus, ip; intraperitoneally 60 minutes before induction of audiogenic seizures; dose producing 50% protection. Format: in vivo. The source says: The objective of this test is to evaluate the anticonvulsant potency of a compound in sound-susceptible mice, a genetic animal model with reflex seizures. In this model of primary generalised epilepsy, seizures are evoked without electrical or chemical stimulation and the seizure types are, at least in part, similar in their clinical phenomenology to seizures occurring in man (Löscher W. 85 Schmidt D., Epilepsy Res. (1998), 2, 145-181; Buchhalter J. R., Epilepsia (1993), 34, S31-S41).
Male or female genetically sound-sensitive mice (14-28 g; N=10), derived from a DBA strain originally selected by Dr. Lehmann of the Laboratory of Acoustic Physiology (Paris) and bred in the UCB Pharma Sector husbandry unit since 1978, are used. The experimental design consisted of several groups, one group receiving the vehicle control and the other groups different doses of the test-compound. The compounds are administered intraperitoneally 60 minutes before the induction of audiogenic seizures.
For testing, the animals are placed in small cages, one mouse per cage, in a sound-attenuated chamber. […] During this interval, the mice are observed and the presence of the 3 phases of the seizure activity namely wild running, clonic and tonic convulsions, is recorded. The proportion of mice protected against wild running, clonic and tonic convulsions, respectively, is calculated. […]

Data set [5] in a line: stability test of seletracetam solutions at different pH. Format: physicochemical. Here is the method: Solutions at different pH are prepared (natural pH (not buffered) and pH 4.5, 5.0, 5.5, 6.0. The pH is controlled by means of an adequate buffer in order to obtain the wished pH (in the example: 50 mM acetate).
as §1, §2
The pH of the various solutions is measured at the beginning of the test and after 2 weeks, 4 weeks, and 10 weeks. The amounts of degradation products in the seletracetam solutions are dosed in the various solutions.

Setting [6] is: solution having a pH range of 5.0 and 6.0.
Where [7] appears, read: solution in the range of pH of 4.5 and 6.5.
[8] abbreviates: 10 mg IV infusion or IV bolus versus 10 mg oral tablet, fully contained within the bioequivalence range.

Molecules are shown by their SMILES. Read-outs that look alike come from different tables or passages of the source.

In the case of `CCC[C@@H]1CC(=O)N([C@@H](CC)C(N)=O)C1` [Brivaracetam, (2S)-2-[(4R)-2-oxo-4-propyl-pyrrolidin-1-yl] butanamide], the degradation rate result in data set [1] (setting [6]) was “lowest”. Moreover, the stability of solution result in data set [1] (setting [7]) was “stable”. The compound also registered a Ki in data set [2] of no more than 1000 nM. For the same compound, in data set [3] (setting [8]), the “90% confidence intervals of geometric ratios of AUC” value was 80-125% and the “90% confidence intervals of geometric ratios of Cmax” value is reported as 80-125%. Further, the “bioequivalence to single dose of brivaracetam 10 mg oral tablet” value in data set [3] (10 mg via 15-minute IV infusion, healthy subjects) is “bioequivalent”. Further, in data set [3] (10 mg via IV bolus, healthy subjects), the “bioequivalence to single dose of brivaracetam 10 mg oral tablet” value is “bioequivalent”. The “pharmacokinetic parameters after IV infusion and IV bolus” value in data set [3] (IV infusion compared with IV bolus) is “similar”. Besides, in data set [3] (dose range 25-150 mg), the “extent of exposure versus dose” value is listed as “proportional to the administered dose”. The safety and tolerability entry in data set [3] (from 25 mg to 150 mg as IV infusion or IV bolus, healthy subjects) is “safe and well tolerated”. In addition, in data set [4], the ED50 – broadly, the dose that gives a 50% effect, or the effect in half of the subjects – was no more than 100 µmol/kg.

Regarding `CC[C@@H](C(N)=O)N1C[C@H](C=C(F)F)CC1=O` [Seletracetam, (2S)-2-[(4S)-4-(2,2-difluorovinyl)-2-oxo-pyrrolidin-1-yl]butanamide], in data set [5] (setting [6]), the degradation rate entry is “lowest”. For the same compound, the stability of solution entry in data set [5] (setting [7]) is listed as “stable”. Also, the Ki in data set [2] (rat cerebral cortex membranes, [3H]-2-[4-(3-azidophenyl)-2-oxo-1-pyrrolidinyl]butanamide radioligand, read-out: pKi (converted)) is no more than 1000 nM. Besides, the ED50 in data set [4] was no more than 100 µmol/kg.
